From patent US20230192701A1, “BICYCLIC KINASE INHIBITORS AND USES THEREOF” (iOmx Therapeutics AG, priority 2020, published 2023)

Tests used:
[1] = Murine plasma protein binding (RED method); assay type: in vitro ADME; details: mouse
Description: (§1) Human and mice protein plasma binding was determined using the Plasma Protein Binding by RED Method. Briefly, 200 uL of the respective plasma containing the test compound (10 uM) was spiked into the donor well (RED Chamber) of the insert. 350 uL of PBS was spiked into receiver well (white chamber). The plate was incubated at 37° C. in a thermomixer at 400 rpm for 5 hours. The samples were matrix equilibrated with opposite matrix (25 uL blank buffet/Plasma). Matrix matched samples were precipitated with 200 uL of Acetonitrile containing Internal standard. Samples were vortexed at 1000 rpm for 5 min and centrifuged at 4000 rpm for 10 min. The supernatant was diluted 2 folds with water and % bound and unbound protein and % recovery at 5 h was determined by LC-MS/MS.
(§2) LC-MS/MS was performed for all assays using a C18 column (50*4.6 mm, 5 um) for the CaCo2 assay, or a C18 column (50*4.6 mm, 4 um) for the other assays. The mobile phases used were 10 mM Ammonium Acetate with 0.1% Formic acid (aqueous) and 100% Acetonitrile (organic).

[2] = target: SIK3 (Homo sapiens, UniProt Q9Y2K2); test: radiometric protein kinase assay (33PanQinase Activity Assay), SIK3; assay type: biochemical; details: ATP 1.0 μM, substrate RBER-CHKtide
[3] = test system: 335 wild-type protein kinases; test: single-point inhibition assays, residual activity (ProQinase Kinase Profiler); assay type: biochemical; details: single-point 0.1 uM and 1 uM, 335 kinases
Description: Several compounds of Formula (I) described herein were also tested in single-point (0.1 uM and 1 uM) inhibition assays over a diverse set of 335 wild-type protein (ProQinase “Kinase Profiler”; ProQinase, Freiburg, Germany), in which the residual activity of each kinase was determined. […] Secondly, the residual activity of each kinase was compared to other compounds tested (in particular, against the prior art compounds PY1) by use of scatter plots.

[4] = Mouse liver microsomal stability; assay type: in vitro ADME; details: pH 7.4; mouse liver microsomes, NADPH, 37°C
Description: (§3) Briefly, human and liver microsomal stability was determined by pre-incubation of 2.5 uL compound and 75 uL of the respective liver microsomes in potassium phosphate buffer (pH 7.4) at 37° C. After adding of NADPH as cofactor and further incubation at 37° C. for 60 min, acetonitrile containing internal standard was added, and the sample was vortexed for 5 min at 1200 rpm and then centrifuged 10 min at 4000 rpm.
as §2

[5] = Human plasma-protein binding (RED method); assay type: in vitro ADME
Description: as §1, §2

[6] = Human hepatocyte stability; assay type: in vitro ADME; details: human hepatocytes, 37°C
Description: Determination of human and mice hepatocyte stability was conducted as follows. 200 uL of the respective hepatocyte cell suspension (2×10e6/ml) was preincubated at 37° C. for 10 min. Then, 200 uL of a 2 uM working stock of the test compound was added to the hepatocyte cell suspension, and the mixture was further incubated at 37° C. and 500 rpm. The reaction was stopped at 30, 60 and 120 min by precipitating 50 uL of the incubation mixture with 200 uL of acetonitrile. Samples were vortexed for 5 min at 1200 rpm and centrifuged at 4000 rpm for 10 min. Intrinsic clearance and half-life were analysed using LC-MS/MS.
as §2

[7] = CaCo2 permeability and efflux assay; assay type: in vitro ADME; details: human, Caco-2; CaCo2, mean efflux ratio
Description: (§4) To determine apparent permeability of the compounds an assay using a Caco-2 cells monolayer (cultured for 21d) in a 24-well format (poly carbonate high pore density plate with 0.4 μm pore size and a 0.7 cm2 active membrane area; Millipore) was performed as followed. 800 uL of DMEM was added to the basal compartment of the 24 well-plate and 60000 CaCo2 cells/well were seeded in the apical wells and incubated in a CO2 incubator at 37° C. for proliferation of cells. Apical to Basal permeability was determined by adding 400 uL of test compound to the apical well and 800 uL of HBSS buffer with 2% BSA to the basal well. 25 uL of basal sample was collected after 120 min and processed as stated below. Basal to Apical permeability was determined by adding 800 uL of test compound to basal well and 400 uL of HBSS buffer with 2% BSA to apical well. 25 uL of apical sample was collected after 120 min and processed as stated below. The samples were processed by diluting the donor samples 1:1 with HBSS containing 2% BSA and the receiver samples 1:1 with HBSS buffer. Samples were then precipitated with 200 uL of acetonitrile containing internal standard, vortexed for 5 min at 1000 rpm, and centrifuged at 4000 rpm for 20 min. 150 uL of supernatant was diluted with 150 uL of water and submitted for LC-MS/MS analysis, and Bi-directional (A-B and B-A) apparent permeability (Papp) was calculated.
as §2

[8] = test system: Caco-2 cells monolayer; test: CaCo2 permeability and efflux assay; assay type: in vitro ADME; details: CaCo2, apical to basal, 120 min
Description: as §4, §2

[9] = Human liver microsomal stability; assay type: in vitro ADME; details: pH 7.4; human liver microsomes, NADPH, 37°C
Description: as §3, §2

Chain of SIK3 (Q9Y2K2 whole entry): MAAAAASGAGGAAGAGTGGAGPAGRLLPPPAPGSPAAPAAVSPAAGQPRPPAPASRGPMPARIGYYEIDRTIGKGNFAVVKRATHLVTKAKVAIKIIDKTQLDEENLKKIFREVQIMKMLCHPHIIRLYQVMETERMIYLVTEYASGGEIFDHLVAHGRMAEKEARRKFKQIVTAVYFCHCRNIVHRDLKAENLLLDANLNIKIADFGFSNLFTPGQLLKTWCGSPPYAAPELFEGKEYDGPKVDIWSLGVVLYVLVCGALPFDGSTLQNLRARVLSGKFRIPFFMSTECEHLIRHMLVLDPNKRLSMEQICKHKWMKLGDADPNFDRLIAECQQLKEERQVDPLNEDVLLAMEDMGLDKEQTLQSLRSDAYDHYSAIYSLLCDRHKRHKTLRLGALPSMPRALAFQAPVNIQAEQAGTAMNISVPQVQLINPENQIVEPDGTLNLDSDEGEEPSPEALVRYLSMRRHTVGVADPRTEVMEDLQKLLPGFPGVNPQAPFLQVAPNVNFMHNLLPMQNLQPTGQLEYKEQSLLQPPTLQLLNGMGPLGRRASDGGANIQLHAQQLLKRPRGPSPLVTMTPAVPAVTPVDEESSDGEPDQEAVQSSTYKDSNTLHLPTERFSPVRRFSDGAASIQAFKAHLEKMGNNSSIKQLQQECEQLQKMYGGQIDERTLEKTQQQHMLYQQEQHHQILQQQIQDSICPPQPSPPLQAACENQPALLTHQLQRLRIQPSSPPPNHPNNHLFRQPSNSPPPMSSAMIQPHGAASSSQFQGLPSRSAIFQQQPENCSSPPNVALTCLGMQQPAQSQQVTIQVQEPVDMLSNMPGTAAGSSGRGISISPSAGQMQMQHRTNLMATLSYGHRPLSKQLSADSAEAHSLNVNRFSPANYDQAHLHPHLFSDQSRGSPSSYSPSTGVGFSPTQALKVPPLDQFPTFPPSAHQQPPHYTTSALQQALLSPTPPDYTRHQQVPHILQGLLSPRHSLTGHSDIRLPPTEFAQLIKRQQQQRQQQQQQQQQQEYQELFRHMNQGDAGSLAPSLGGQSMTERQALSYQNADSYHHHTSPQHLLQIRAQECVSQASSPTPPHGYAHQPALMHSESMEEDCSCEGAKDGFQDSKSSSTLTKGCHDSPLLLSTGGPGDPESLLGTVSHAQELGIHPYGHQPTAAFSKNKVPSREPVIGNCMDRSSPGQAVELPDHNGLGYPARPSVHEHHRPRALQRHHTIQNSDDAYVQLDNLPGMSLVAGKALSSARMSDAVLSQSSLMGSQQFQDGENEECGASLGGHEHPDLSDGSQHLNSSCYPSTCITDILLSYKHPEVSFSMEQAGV

In the case of COc1ccc(N2C(=O)N(c3c(C)csc3Cl)Cc3cnc(Nc4ccc(C5CCN(C)CC5)cc4OC)nc32)nc1 [AA1, 3-(2-chloro-4-methylthiophen-3-yl)-7-((2-methoxy-4-(1-methylpiperidin-4-yl)phenyl)amino)-l-(5-methoxypyridin-2-yl)-3,4-dihydropyrimido[4,5-d]pyrimidin-2(1H)-one], the recovery at 5 h, 10 uM [1] is reported as 40%, the IC50 [2] is reported as 200 to 400 nM and the “overall kinase profile compared to prior art compound PY1” value [3] is reported as “most similar overall kinase profile to the prior art compound PY1”. The “particular kinases with different inhibition than PY1” value [3] was “BLK, SIK3 and TEC”, the half-life [4] was 45 min and the recovery at 5 h, 10 uM [5] was 32%. For the same compound, the half-life at 1 uM [6] was 658 min, the efflux ratio at 120 min [7] was 2.4 and the “A > B(10 EE-06 cm/s)” value [8] was 10.5 10 EE-06 cm/s. For the same compound, the half-life [9] was 18 min.
